The values below are quoted from earlier work in patent US6977247B2, “Sequential therapy comprising a 20(S)-camptothecin and a pyrimidine base analog” (SuperGen, Inc., priority 2002, dated 2005).

Data set [1] has as its system human colon cancer xenografts. The conditions noted are these: mouse, in vivo.
Data set [2] relates to various types of cancer, including primary cancer and metastasis. Particulars: human, in vivo.
The conditions of data set [3]: administered intravenously; studies abandoned.

For the compound `CC[C@@]1(O)C(=O)OCc2c1cc1n(c2=O)Cc2cc3c(N)cccc3nc2-1` [9AC, 9-Amino-20(S)-Camptothecin], in data set [1], the “anticancer activity against human colon cancer xenografts” value is recorded as “high anticancer activity”.

Turning to `CC[C@@]1(O)C(=O)OCc2c1cc1n(c2=O)Cc2cc3c([N+](=O)[O-])cccc3nc2-1` [9NC, 9-nitrocamptothecin], the “growth of human tumor xenografts” value in the data set with human tumor xenografts (immunodeficient nude mice) is recorded as “inhibited the growth”. Also, the “regression of human tumors established as xenografts” value in the data set with human tumor xenografts (nude mice) is listed as “induced regression”. The “tumors known to regress after exposure” value in data set [2] was “breast carcinoma, ovarian carcinoma, cholangiocarcinoma, monomyelocytic leukemia, and pancreatic carcinoma”.

With `CC[C@@]1(O)C(=O)OCc2c1cc1n(c2=O)Cc2cc3cc4c(cc3nc2-1)OCO4` [10, 2011 MD, 10, 2011-Methylendioxy-20(S)-Camptothecin], in data set [1], the “anticancer activity against human colon cancer xenografts” value is recorded as “high anticancer activity”.

Take `CC[C@@](O)(C(=O)[O-])c1cc2n(c(=O)c1CO)Cc1cc3ccccc3nc1-2.[Na+]` [20(S)-camptothecin Na^+, sodium salt of 20(S)-camptothecin]: in data set [3], the “potency in clinical trials” value was “low potency” and the “toxicity in clinical trials” value is reported as “high toxicity”.

With `CC[C@@]1(O)C(=O)OCc2c1cc1n(c2=O)Cc2cc3ccccc3nc2-1` [20(S)-camptothecin], the solubility in water entry is recorded as “insoluble in water”.
